Measured values from patent US6906049B1, “Contraceptive medicine based on a progestational agent and an oestrogen and preparation method” (Laboratoire Theramex, priority 1996, dated 2005).

Key:
women = test: Another clinical trial, same methodology, with the progestative agent alone; format: in vivo; details: NOMAC 1.25 mg alone (n=3), treated cycle
Description: This synergistic effect of oestradiol is confirmed by comparing the results of this study with those of another clinical trial performed according to the same methodology, but with the progestative agent alone. […] On the other hand, the addition of oestradiol lowers the plasmatic levels of oestradiol, assayed 24 hours after taking the medicinal product, by about […]; this parameter is a good reflection of the endogenous secretion of the ovaries (Table II).

endometrium = test: Clinical trial similar to the Kaufmann's trial (endometrial conversion); format: in vivo, women
From the text: (§1) The ratio of the ovulation-inhibiting activity in women (in mg/day) to the endometrial luteinizing |activity (in mg/cycle) as defined by Neumann (1977) is thus in the order of 0.2, i.e. close to those of cyproterone acetate and chlormadinone acetate; this indicates a strong central activity (Oettel et al., 1999). In this sense, it clearly differs from dienogest, whose activity is disequilibrated to the benefit of the peripheral activity.

[1] = test system: female volunteers in the period of ovarian activity; test: Randomized double-blind study of the anti-ovulatory action of the oestradiol/nomegestrol acetate combination in 38 female volunteers; format: in vivo, women; details: day 1-21, m ± sem
Description: The anti-ovulatory action of the oestradiol/nomegestrol acetate combination was evaluated in a randomized double-blind study on 38 female volunteers, in good health, aged 18 to 35, in the period of ovarian activity, for whom it was checked beforehand, by means of an assay of the progesterone in the plasma and the establishment of a temperature curve, that they had ovulatory menstrual cycles.
The women were monitored for two consecutive cycles: the first was a control cycle without treatment; during the following cycle (cycle under treatment), they received a hormonal treatment administered orally daily from the 1st to the 21st day of the cycle.
According to the randomization: • 9 women received 1.5 mg of oestradiol+0.625 mg of nomegestrol acetate (group A), • 10 others received 1.5 mg of oestradiol+1.25 mg of nomegestrol acetate (group B), • another 10 received 1.5 mg of oestradiol+2.5 mg of nomegestrol acetate (group C), • and the other 9 were treated with nomegestrol acetate alone at a dose of.2.5 mg (group D).
During the control cycle, the hormonal parameters were not significantively different among the four groups. Table I indicates the mean concentrations observed for each hormonal parameter in the course of the 21 days of treatment.

ovulation [2] = test: Inhibition of ovulation in women (literature data); format: in vivo; details: as defined by Neumann (1977)
Description: The oestrogenic component involves oestradiol or an ester or an ether thereof, such as, for example, the valerate, benzoate, enanthate, etc., the doses used being calculated as oestradiol equivalents. The doses range from 0.3 mg to 3 mg per day with a preference for a range from 0.5 mg to 2 mg per day. According to the literature data (Hirvonen, 1995), a dose of 4 mg is needed to ensure the inhibition of ovulation, but they correspond to the doses used to compensate for hypooestrogenic states. For example, in menopausal women, the dose recommended to compensate for hypooestrogenic states is about 1.5 mg.
as §1

ovulation [3] = details: cited from earlier work

SMILES	FSH mean concentration in the plasma (women) [mIU/ml]	LH mean concentration in the plasma (women) [mIU/ml]	Oestradiol mean concentration in the plasma (women) [pg/mL]	Daily dose giving endometrial conversion (endometrium; daily dose) [mg]	Dose for the entire cycle giving endometrial conversion (endometrium; entire cycle) [mg]	LH mean concentration in the plasma ([1]; Group D (n=9): 2.5 mg NOMAC alone oral daily) [mIU/ml]	FSH mean concentration in the plasma ([1]; Group D: 2.5 mg NOMAC alone) [mIU/ml]	Oestradiol mean concentration in the plasma ([1]; Group D: 2.5 mg NOMAC alone) [pg/mL]	Progesterone mean concentration in the plasma ([1]; Group D: 2.5 mg NOMAC alone) [ng/mL]	Ratio of ovulation-inhibiting activity (mg/day) to endometrial luteinizing activity (mg/cycle) (ovulation [2])	Effect on ovulation (ovulation [3]; given alone at 1.25 mg per day, oestradiol level in plasma increases)	Daily dose giving inhibition of ovulation and of follicle development in women (ovulation [3]; nomegestrol acetate alone, Bazin et al., 1987) [mg]	Dose needed to ensure the inhibition of ovulation (ovulation [3]; oestradiol alone, Hirvonen, 1995) [mg]
CC(=O)O[C@]1(C(C)=O)CC[C@H]2[C@@H]3C=C(C)C4=CC(=O)CC[C@@H]4[C@H]3CC[C@@]21C [NOMAC, nomegestrol acetate]	3.3	3.1	158.8	1	10	5.6 ± 0.62	7.6 ± 0.28	31.9 ± 3.91	0.07 ± 0.014	~0.2	abolishes ovulation	2.5	–
C[C@]12CC[C@@H]3c4ccc(O)cc4CC[C@H]3[C@@H]1CC[C@@H]2O [oestradiol, 17beta-oestradiol]	–	–	–	–	–	–	–	–	–	–	–	–	4
